Results: PMC9582194, “The effect of helix-inducing constraints and downsizing upon a transcription block survival-derived functional cJun antagonist” (Cell Reports. Physical Science, 2022)
Values joined by “and” are separate entries in the source; they are usually repeats but may differ in a detail not shown here. Equal values may be shown once. Positions of bridges follow the written chain, without caps; N, C: chain ends. Residues, ends and D or L forms follow the SMILES beside them.

How the values were obtained:
cJun [1] = biological target: T1, cJun (Homo sapiens, UniProt P05412); assay: Isothermal titration calorimetry (ITC) with cJun; type: binding; conditions: 25 °C, average of two experiments ± one SD
T1 construct: The same 60 amino acid cJun construct, encompassing the entire bZIP domain, was used for all experiments
T1 sequence (P05412 252-315 limits assumed): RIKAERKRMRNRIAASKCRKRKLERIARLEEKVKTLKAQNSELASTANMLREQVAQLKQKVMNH
Source text: A selection of peptides from this work were investigated by isothermal titration calorimetry (ITC) to quantify the thermodynamic parameters of their interaction with target cJun (Figure 4 and S6; Table 2). The determined equilibrium binding constant (KD) values follow from the CD data above and can be rationalized in terms of the truncation or lactamization they represent. […] All interactions investigated were dominated by the enthalpic component, with a smaller unfavorable entropic contribution, other than for HW8/cJun, which is the weakest interaction. The unfavorable entropic component was largest for the HW30/cJun interaction and smallest for HW23/cJun. This indicates the introduction of lactams produces a more unfavorable entropic component, perhaps a surprising result as helix-inducing lactamization is typically considered to increase affinity through entropic pre-organization. However, the larger increase in the favorable enthalpic component produces an increase in binding affinity due to lactamization. This is likely to be caused by a combination of enhanced intermolecular contacts and ordering that are opposed by unfavorable desolvation effects.
Two-μL injections of antagonist peptide at 25–200 μM were injected into the cell containing cJun at 2.5–20 μM at 25°C. Microcal Control and Analysis software were used to record and analyze the heat change upon addition and fit the data to a one-site binding model to extract the enthalpy change of binding (ΔH) and the KD, from which the free energy change of binding (ΔG) and the entropy change of binding (ΔS) were calculated.[40] Control experiments involved the injection of the antagonist peptide sample into the cell containing ITC buffer alone to determine the heat of dilution, which was subtracted. Thermodynamic parameters are presented as an average of two independent experiments with errors given as one SD.

cJun [2] = biological target: T1, cJun; assay: CD thermal denaturation of peptide-cJun heterodimers (Tm); type: binding; conditions: for Tm of peptide-cJun heterodimer: CD ellipticity at 222 nm, 1-90 °C, peptide (5 μM)/cJun (5 μM), 20 mM potassium phosphate, 150 mM potassium fluoride, 2 mM TCEP pH 7.4, two-state fit, duplicate experiments, ± one SD
Protocol: (§1) The precise nature of the interaction between the cJun DBD and the rationally designed acidic domain of HW1 is unknown. HW1 was, therefore, iteratively truncated from the N terminus (HW2–6) to investigate the effect on cJun binding and cJun/TRE DNA antagonism (Table 1). Peptide fraction helicity (fH) was determined by quantifying the circular dichroism (CD) signal at 222 nm of peptide-only samples (Figure S1). Thermal denaturation experiments were then used to determine the melting temperature (Tm) of peptide-cJun heterodimers, which serves as an approximate measure of target engagement. CD was also used to investigate the functional activity of peptides in antagonizing the cJun/TRE DNA interaction. […] This provides a clear and direct measurement of the proportion of DNA bound to cJun. As antagonist peptide concentration was increased, the peak shifted to overlay with that of free TRE-DNA (Figure S4). For each peptide, the data were fit to a Hill equation to determine half-maximal inhibitory concentration (IC50) values, specific to these assay conditions, providing a clear comparative measure of antagonism. The same 60 amino acid cJun construct, encompassing the entire bZIP domain, was used for all experiments regardless of antagonist peptide length.
Figure 2 Iterative N-terminal truncation of HingeW reduces cJun binding and antagonism (A) Thermal denaturation profiles for iteratively truncated peptide (5 μM)/cJun (5 μM) heterodimer samples. (B) CD antagonism data produced by monitoring the shift in a DNA specific peak to provide a direct readout of cJun-DNA binding. Peptides are added at the indicated concentrations to a pre-incubated mixture of cJun (20 μM) and TRE DNA (5 μM). Data points were averaged from triplicate experiments, and error bars indicate one SD. The data were fitted to a Hill equation to determine IC50 values. Some higher peptide concentration data points for HW6 and HW9 are not shown in this plot for clarity.

Stability in human serum = conditions: human serum (Merck), 75 μL of 600 μM peptide stock added to 1425 μL serum, 37 °C, 3-day endpoint; acetonitrile:water precipitation; LC-MS, sum of two largest charge-state peaks; average of three repeats
[3] = CD thermal denaturation of peptide alone, 222 nm
Protocol: The LZ domain of HW1 has four point mutations from its parent sequence, FosW, which is known to homodimerize.[24]
Protein/DNA samples were suspended in 20 mM potassium phosphate, 150 mM potassium fluoride, and 2 mM TCEP (pH 7.4). cJun was added to DNA before addition of antagonist peptide, and these samples were equilibrated for 30 min before measurement.

[4] = Peptide fraction helicity by CD at 222 nm, peptide-only samples; type: physicochemical; conditions: CD signal at 222 nm of peptide-only samples; pH 7.4 phosphate/KF/TCEP buffer; duplicate experiments
Protocol: as §1

cJun/TRE DNA interaction = biological target: T2, cJun/TRE DNA interaction (Homo sapiens, UniProt P05412); assay: CD antagonism of the cJun/TRE DNA interaction; type: biochemical
T2 construct: The same 60 amino acid cJun construct, encompassing the entire bZIP domain, was used for all experiments
T2 sequence (P05412 252-315 limits assumed): as above
Protocol: as §1, with “For each peptide, the data were fit to a Hill equation to determine half-maximal inhibitory concentration (IC50) values, specific to these assay conditions, providing a clear comparative measure of antagonism. The same 60 amino acid cJun construct, encompassing the entire bZIP domain, was used for all experiments regardless of antagonist peptide length.” left out
Figure 2 Iterative N-terminal truncation of HingeW reduces cJun binding and antagonism (A) Thermal denaturation profiles for iteratively truncated peptide (5 μM)/cJun (5 μM) heterodimer samples. (B) CD antagonism data produced by monitoring the shift in a DNA specific peak to provide a direct readout of cJun-DNA binding. […]

TRE DNA = assay: CD of TRE DNA with antagonist peptide alone (Figure S3); type: binding; conditions: TRE DNA (5 μM) + HingeW (50 μM), CD 260-320 nm
Protocol: as §1, with “length. […]” for “length.”
wavelength range, so the CD signal observed occurs due to the DNA structure, which is not perturbed upon addition of HingeW. […]

[5] = CD thermal denaturation; peptide alone (no cJun); thermal denaturation curves compared as a sign of homodimerization; conditions: other: CD thermal denaturation
[6] = biological target: T3, cJun (60 amino acid construct encompassing the entire bZIP domain) (UniProt P05412 252-315); assay: CD thermal denaturation; peptide (5 μM) with cJun (5 μM); ellipticity at 222 nm, 1°C to 90°C; 20 mM potassium phosphate, 150 mM potassium fluoride, 2 mM TCEP, pH 7.4; two-state fit gives the Tm of the peptide-cJun heterodimer; duplicate experiments; conditions: both partners purified
T3 sequence (P05412 252-315): as the sequence (P05412 252-315 limits assumed) above

[7] = biological target: T3, cJun (60 amino acid construct …); assay: cell-based or functional assay
[8] = biological target: cJun (60 amino acid construct encompassing the entire bZIP domain) (UniProt P05412)
Chain of cJun (60 amino acid construct encompassing the entire bZIP domain) (UniProt P05412) (P05412 252-315): as the sequence (P05412 252-315 limits assumed) above

[9] = peptide 25-200 μM injected into cJun 2.5-20 μM, pH 7.4, one-site model

Molecule: CC[C@H](C)[C@H](NC(=O)[C@H](CCC(=O)O)NC(=O)[C@H](CCCCN)NC(=O)[C@H](CCCNC(=N)N)NC(=O)[C@H](CC(C)C)NC(=O)[C@H](C)NC(=O)[C@H](Cc1ccc(O)cc1)NC(=O)[C@H](CC(N)=O)NC(=O)[C@H](CCCNC(=N)N)NC(=O)[C@H](CCC(=O)O)NC(=O)[C@H](CCC(=O)O)NC(=O)[C@H](CC(C)C)NC(=O)[C@H](CCC(N)=O)NC(=O)[C@H](CCC(=O)O)NC(=O)[C@@H](NC(=O)[C@H](CCC(=O)O)NC(=O)[C@H](CCC(=O)O)NC(=O)[C@H](CCC(=O)O)NC(=O)[C@H](CC(C)C)NC(=O)[C@@H](NC(=O)[C@H](CC(=O)O)NC(=O)[C@H](CCC(=O)O)NC(=O)[C@H](CCC(=O)O)NC(=O)[C@@H](NC(=O)[C@@H](NC(=O)[C@H](CC(C)C)NC(=O)[C@H](CCC(=O)O)NC(=O)[C@H](CCC(=O)O)NC(=O)[C@H](C)NC(=O)[C@H](CCC(=O)O)NC(C)=O)C(C)C)C(C)C)C(C)C)[C@@H](C)CC)C(=O)N[C@H]1CCCCNC(=O)C[C@@H](C(=O)N[C@@H](CCC(N)=O)C(N)=O)NC(=O)[C@H](CCC(N)=O)NC(=O)[C@H](CC(C)C)NC(=O)[C@H](CC(=O)O)NC1=O [HW29] (Ac-EAEELVVEEDVLEEEIEQLEERNYALRKEIKDLQDQ-NH2; lactam 31-35)
- Kd (cJun [1]; [9]): 0.0866 ± 0.017 µM
- ΔTm of cJun heterodimer due to lactamization (cJun [2]; cyclized versus its linear (non-lactamized) counterpart): ~9 °C
- ΔTm of cJun heterodimer relative to parent sequence HW8 (cJun [2]; versus HW8, before the substitutions for K and D residues): ~8 °C
- peptide remaining in human serum, peak intensity relative to starting value (Stability in human serum): 31%

Molecule: Ac-LVVEEDVLEEEIEQLEERNYALRKEIEDLQKQLEKL-NH2 [HW5]
- Tm of peptide alone [3]: 41 °C
- fH, peptide fraction helicity [4]: 46.7%
- Tm of peptide-cJun heterodimer (cJun [2]): 62.8 ± 1.0 °C

Molecule: Ac-EAEELVVEEDVLEEEIEQLEEKNKALKDEIEDLY-NH2 [HW14]
- IC50 (cJun/TRE DNA interaction; peptide added to pre-incubated cJun (20 μM) and TRE DNA (5 μM), shift of DNA CD peak at ~281 nm, 30 min equilibration, pH 7.4, Hill fit, triplicate experiments, ± one SD, read-out: IC50 CD (antagonism of cJun/TRE DNA binding)): 1560 µM
- fH, peptide fraction helicity [4]: 30.1%

Molecule: MASLEQRAEELARENEELEKEAEELVVEEDVLEEEIEQLEERNYALRKEIEDLQKQLEKLGAPHHHHHH [HW1, TBS-derived cJun antagonist; recombinantly produced N/C-capped, C-terminally 6xHis-tagged construct of 69 amino acids]
- ΔG (cJun [1]; pH 7.4, calculated from KD): -13.45 ± 0.179 kcal/mol
- -TΔS (cJun [1]; pH 7.4, calculated from ΔH and KD): 17.55 ± 0.884 kcal/mol
- fH, peptide fraction helicity [4]: ~27% and 27.2%
- peptide remaining in human serum, peak intensity relative to starting value (Stability in human serum): fully degraded
- interaction with TRE DNA (in words) (TRE DNA): does not interact

Molecule: Ac-EAEELVVEEDVLEEEIEQLEERNYALRKEIEDLQKQ-NH2 [HW8]
- ΔH (cJun [1]; pH 7.4, one-site model): -5.989 ± 0.813 kcal/mol
- Stoichiometry, n (cJun [1]; [9]): 0.95 ± 0.09
- fH, peptide fraction helicity [4]: 37.3%
- Tm of peptide-cJun heterodimer (cJun [2]): 57.1 ± 0.9 °C
- peptide remaining in human serum, peak intensity relative to starting value (Stability in human serum): fully degraded

Molecule: MASLEQRAEELARENEELEKEAEELVVE-NH2 [HW7, acidic domain of HW1 alone (CΔ35)]
- antagonism of the ability of cJun to bind TRE DNA (in words) (cJun/TRE DNA interaction; CD antagonism assay): did not
- binding to cJun (in words) (cJun [2]; acidic domain alone): not to bind

B1: HW5 (peptide)
peptide: Ac-LVVEEDVLEEEIEQLEERNYALRKEIEDLQKQLEKL-NH2
notes: truncation NΔ24 CΔ3 of HW1; source: synthetic peptide (Fmoc SPPS, RP-HPLC purified)
- Tm of the peptide alone [5]: HW5 displayed a Tm of 41 °C
- Tm of the peptide-cJun heterodimer [6]: 62.8 °C
- IC50 CD: peptide added to pre-incubated cJun (20 μM) and TRE DNA (5 μM); blocks cJun/TRE DNA binding [7]: 78.2 µM

Molecule: Ac-EAEELVVEEDVLEEEIEQLEEKNKALKDEIEDLY-NH2 [HW14]
- IC50 CD: peptide added to pre-incubated cJun (20 μM) and TRE DNA (5 μM); blocks cJun/TRE DNA binding [8]: 1560 µM
